In patent US8703811B2, “Small molecule inhibitors of Plasmodium falciparum dihydroorotate dehydrogenase” (Genzyme Corporation, priority 2008, dated 2014):
Read-outs that look alike come from different tables or passages of the source.

How the values were obtained:
hsDHODH = hsDHODH (Homo sapiens (Human), UniProt Q02127); test: DCIP assay, hsDHODH; format: biochemical
P. falciparum 3D7 = test: Inhibition of in vitro P. falciparum culture, [3H]-hypoxanthine uptake, 3D7; format: cell-based; settings: for EC50: read-out: 3D7 EC50; for IC50: read-out: 3D7 IC50
How it was run: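 Parasite growth inhibition measured as relative reduction of [3H]-hypoxanthine uptake in in vitro cultures. Values from non-linear regression fit, using relative growth velocity in place of product-formation rate.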

[1] = test system: Normal Human Dermal Fibroblasts; test: Normal Human Dermal Fibroblast Toxicity Screen; format: cell-based
How it was run: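 Fibroblasts seeded at 0.25 to 0.3×10^5 cells/mL, allowed 24 h at 37° C./5% CO2, then exposed to compounds for 96 hours. Viability read as Alamar Blue fluorescence after 3 h, with a T=0 plate, Tween 20 as positive control and DMSO as negative control.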

Permeability = format: in vitro ADME; settings: for Papp: Caco-2
Description: Permeability assays using the Caco-2 colon carcinoma cell line are being used throughout the pharmaceutical industry to estimate the ability of potential drug compounds to cross the intestinal epithelium. Caco-2 cell permeability studies are performed using Caco-2 cell monolayers grown on microporous membranes in multiwell insert systems. With the inserts suspended in the wells of multiwell plates, test compounds can be added to either the upper (apical) or lower (basolateral) chamber to measure permeability in the absorptive (apical to basolateral) or secretive (basolateral to apical) directions. Samples are then taken from the opposite chamber at various time intervals to measure the amount of test compound that has crossed the cell monolayer. A representative method to generate permeability data similar to that in Table 3 can be found in Alsenz, J; Haenel, E. “Development of a 7-Day, 96-Well Caco-2 Permeability Assay with High-Throughput Direct UV Compound Analysis.” Pharmaceutical Research 2003 20(12): p 1961-1969.
Parallel artificial membrane permeability assay (PAMPA) utilizes a simple phospholipid-coated filter disc to measure membrane permeability. It was developed as an alternative to the low throughput. Caco-2 cell permeability assay used to correlate passive permeability with in vivo oral absorption. A representative publication disclosing this method is Kerns, E H; Di, L; Petusky, S; Farris, M; Ley, R; Jupp, P. “Combined application of parallel artificial membrane permeability assay and Caco-2 permeability assays in drug discovery.” J. Pharma Sci. 2004, 93 (6), pages 1440-53.
Cell culture methods (e.g. Caco-2, HT-29 and MDC) and physicochemical methods such as PAMPA and immobilized artificial membrane (IAM) columns are known in the art and can be used to obtain data such as that in Table 3. Hidalgo, I J; “Assessing the absorption of new pharmaceuticals.” Curr Top Med. Chem. 2001 November; 1(5): p 385-401.

Cytochrome P450 2D6 = Cytochrome P450 2D6 (Homo sapiens (Human), UniProt P10635); test: Cytochrome P450 inhibition, 2D6; format: in vitro ADME
Cytochrome P450 2D6, sequence (P10635 whole entry): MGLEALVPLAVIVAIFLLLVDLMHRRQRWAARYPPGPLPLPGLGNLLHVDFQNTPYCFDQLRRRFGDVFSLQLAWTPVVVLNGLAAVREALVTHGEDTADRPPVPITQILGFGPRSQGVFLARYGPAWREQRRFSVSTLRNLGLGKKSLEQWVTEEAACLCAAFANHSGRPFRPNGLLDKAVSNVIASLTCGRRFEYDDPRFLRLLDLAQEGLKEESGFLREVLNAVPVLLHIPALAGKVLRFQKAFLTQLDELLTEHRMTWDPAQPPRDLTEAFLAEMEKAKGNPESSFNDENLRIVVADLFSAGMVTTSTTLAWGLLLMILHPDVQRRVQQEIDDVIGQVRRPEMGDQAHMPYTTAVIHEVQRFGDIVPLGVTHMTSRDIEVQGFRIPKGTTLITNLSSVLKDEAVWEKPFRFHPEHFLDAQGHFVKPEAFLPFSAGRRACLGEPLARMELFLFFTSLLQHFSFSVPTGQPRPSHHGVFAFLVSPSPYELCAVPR
Excerpt: (§1) Rapid screening for cytochrome P450 inhibitors is part of the current paradigm for avoiding development of drugs likely to give clinical pharmacokinetic drug-drug interactions and associated toxicities. There are commercially available assays for such screenings. For example, BD Biosciences (http://www.bdbiosciences.com/index.shtml) provides a technical bulletin describing a detailed, step-by-step procedure for the performance of the high throughput cytochrome P450 inhibition testing method.

Cytochrome P450 3A4 = Cytochrome P450 3A4 (Homo sapiens (Human), UniProt P08684); test: Cytochrome P450 inhibition, 3A4; format: in vitro ADME
Cytochrome P450 3A4, sequence (P08684 whole entry): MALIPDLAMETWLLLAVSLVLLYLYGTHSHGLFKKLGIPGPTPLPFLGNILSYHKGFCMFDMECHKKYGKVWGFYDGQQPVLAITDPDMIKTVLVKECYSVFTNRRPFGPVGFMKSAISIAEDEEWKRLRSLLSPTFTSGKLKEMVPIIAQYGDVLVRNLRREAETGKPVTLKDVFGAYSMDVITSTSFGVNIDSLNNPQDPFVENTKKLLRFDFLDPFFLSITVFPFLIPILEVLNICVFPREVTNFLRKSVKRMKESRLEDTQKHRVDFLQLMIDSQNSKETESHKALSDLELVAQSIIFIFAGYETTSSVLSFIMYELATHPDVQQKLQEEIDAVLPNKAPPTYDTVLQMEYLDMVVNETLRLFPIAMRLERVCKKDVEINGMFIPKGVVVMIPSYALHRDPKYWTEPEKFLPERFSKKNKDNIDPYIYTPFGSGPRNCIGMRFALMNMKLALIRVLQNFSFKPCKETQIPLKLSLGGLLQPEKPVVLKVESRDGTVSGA
Excerpt: as §1

Cytochrome P450 2C19 = Cytochrome P450 2C19 (Homo sapiens (Human), UniProt P33261); test: Cytochrome P450 inhibition, 2C19; format: in vitro ADME
Cytochrome P450 2C19, sequence (P33261 whole entry): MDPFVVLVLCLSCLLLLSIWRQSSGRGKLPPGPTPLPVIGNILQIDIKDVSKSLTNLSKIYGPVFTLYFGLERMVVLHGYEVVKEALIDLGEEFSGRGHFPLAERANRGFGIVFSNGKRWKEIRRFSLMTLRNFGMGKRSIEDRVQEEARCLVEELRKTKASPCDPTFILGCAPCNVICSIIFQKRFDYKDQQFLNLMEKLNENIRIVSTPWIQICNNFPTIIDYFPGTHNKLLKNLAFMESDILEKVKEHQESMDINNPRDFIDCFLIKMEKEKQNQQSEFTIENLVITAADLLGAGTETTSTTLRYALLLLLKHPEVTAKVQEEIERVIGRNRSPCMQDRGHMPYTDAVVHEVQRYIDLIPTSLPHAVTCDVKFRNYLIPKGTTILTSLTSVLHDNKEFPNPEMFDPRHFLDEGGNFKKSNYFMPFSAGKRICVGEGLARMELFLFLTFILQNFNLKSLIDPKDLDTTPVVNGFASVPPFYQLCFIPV
Excerpt: as §1

Cytochrome P450 2C9 = Cytochrome P450 2C9 (Homo sapiens (Human), UniProt P11712); test: Cytochrome P450 inhibition, 2C9; format: in vitro ADME
Cytochrome P450 2C9, sequence (P11712 whole entry): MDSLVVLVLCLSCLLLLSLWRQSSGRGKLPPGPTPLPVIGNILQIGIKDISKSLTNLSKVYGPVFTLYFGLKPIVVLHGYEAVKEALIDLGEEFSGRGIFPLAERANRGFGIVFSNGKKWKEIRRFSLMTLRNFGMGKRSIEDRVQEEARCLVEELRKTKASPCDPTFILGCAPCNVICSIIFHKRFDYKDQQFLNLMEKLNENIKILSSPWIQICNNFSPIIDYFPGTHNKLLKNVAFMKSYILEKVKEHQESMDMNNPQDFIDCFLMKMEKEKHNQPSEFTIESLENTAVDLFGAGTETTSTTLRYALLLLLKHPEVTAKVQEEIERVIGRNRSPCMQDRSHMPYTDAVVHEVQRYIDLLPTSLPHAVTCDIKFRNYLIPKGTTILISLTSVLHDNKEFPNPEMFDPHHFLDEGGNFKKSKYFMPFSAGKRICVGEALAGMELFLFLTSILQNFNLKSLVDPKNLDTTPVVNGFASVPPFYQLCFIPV
Excerpt: as §1

Cytochrome P450 1A2 = Cytochrome P450 1A2 (Homo sapiens (Human), UniProt P05177); format: in vitro ADME
Cytochrome P450 1A2, sequence (P05177 whole entry): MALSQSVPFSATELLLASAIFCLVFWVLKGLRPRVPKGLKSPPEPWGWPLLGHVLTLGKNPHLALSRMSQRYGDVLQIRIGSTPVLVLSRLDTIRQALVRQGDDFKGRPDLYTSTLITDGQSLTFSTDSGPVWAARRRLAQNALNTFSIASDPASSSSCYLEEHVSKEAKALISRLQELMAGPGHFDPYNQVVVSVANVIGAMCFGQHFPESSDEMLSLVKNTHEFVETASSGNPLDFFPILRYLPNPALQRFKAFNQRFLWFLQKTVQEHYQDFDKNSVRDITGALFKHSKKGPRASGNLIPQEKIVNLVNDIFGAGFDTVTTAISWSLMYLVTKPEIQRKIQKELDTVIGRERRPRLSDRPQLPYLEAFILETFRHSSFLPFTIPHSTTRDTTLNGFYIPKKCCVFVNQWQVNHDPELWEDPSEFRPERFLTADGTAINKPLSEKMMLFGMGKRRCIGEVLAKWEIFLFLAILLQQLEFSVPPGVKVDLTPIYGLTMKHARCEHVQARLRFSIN
Excerpt: as §1

[2] = Table 2b, read-out: Hu (human DHODH) IC50
[3] = Table 3, DCIP assay, 20 nM hsDHODH, read-out: hsDHODH IC50
[4] = Plasmodium falciparum, 3D7, Table 2b
[5] = Plasmodium falciparum, 3D7, Table 3, [3H]-hypoxanthine uptake

hsDHODH, sequence (Q02127 29-395 limits assumed): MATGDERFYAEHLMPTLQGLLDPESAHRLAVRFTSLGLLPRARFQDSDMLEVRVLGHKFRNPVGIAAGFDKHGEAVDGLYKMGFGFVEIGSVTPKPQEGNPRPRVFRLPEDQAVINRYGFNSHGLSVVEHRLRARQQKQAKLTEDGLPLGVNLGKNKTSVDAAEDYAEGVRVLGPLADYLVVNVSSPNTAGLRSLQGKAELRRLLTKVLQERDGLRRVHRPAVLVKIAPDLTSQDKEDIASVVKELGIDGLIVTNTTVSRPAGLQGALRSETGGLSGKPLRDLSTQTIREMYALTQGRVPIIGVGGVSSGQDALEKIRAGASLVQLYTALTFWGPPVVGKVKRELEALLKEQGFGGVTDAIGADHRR

Row | Molecule | IC50 (hsDHODH; [2]) [nM] | IC50 (hsDHODH; [3]) [nM] | EC50 (P. falciparum 3D7; Table 2b) [nM] | IC50 (P. falciparum 3D7; Table 3, [3H]-hypoxanthine uptake) [nM] | CC50 ([1]; four days exposure, Alamar Blue, read-out: Dermal Fibroblast LC50) [nM] | Permeability (Permeability) [cm/sec × 10^−6] | IC50 (hsDHODH; DCIP assay, 200 μM L-DHO, 18 μM CoQD, 100 μM DCIP, 20 nM enzyme, read-out: hsDHODH IC50) [nM] | IC50 (P. falciparum 3D7; Plasmodium falciparum, 3D7, Erythrocyte, [3H]-hypoxanthine uptake by parasite infected erythrocytes) [nM] | EC50 (P. falciparum 3D7; [4]) [nM] | IC50 (P. falciparum 3D7; [5]) [nM] | Cytochrome P450 Inhibition, 2D6 (Cytochrome P450 2D6) [in 2D6 μM] | Cytochrome P450 Inhibition, 3A4 (Cytochrome P450 3A4) [in 3A4 μM] | Cytochrome P450 Inhibition, 2C19 (Cytochrome P450 2C19) [in 2C19 μM] | Papp (Permeability) [×10⁻⁶ cm/s] | Cytochrome P450 Inhibition, 2C9 (Cytochrome P450 2C9) [in 2C9 μM] | Cytochrome P450 Inhibition, 1A2 (Cytochrome P450 1A2) [in 1A2 μM] | cytotoxicity in dermal fibroblasts [1]
1 | 5-(1H-indol-1-yl)-N-propylthiophene-2-carboxamide [Compound 7] | > 30000 | > 30000 | 708 | 710 | 50000 | 52 | – | – | – | – | – | – | – | – | – | – | –
2 | CCCNC(=O)c1ccc(-n2c(C)cc3ccccc32)s1 [Compound 1, 5-(2-methyl-1H-indol-1-yl)-N-propylthiophene-2-carboxamide] | > 30000 | > 30000 | – | – | – | – | > 30000 | 470 | 386 | 390 | – | – | – | – | – | – | –
3 | CCCNC(=O)c1ccc(-n2cnc3ccccc32)s1 [Compound 11, 5-(1H-benzo[d]imidazol-1-yl)-N-propylthiophene-2-carboxamide] | > 30000 | > 30000 | – | – | – | – | – | – | 472 | 470 | >5.0 | >5.0 | >5.0 | 32 | >5.0 | >5.0 | –
4 | CCCNC(=O)c1ccc(-n2c(C)nc3ccccc32)s1 [Compound 12, 5-(2-methyl-1H-benzo[d]imidazol-1-yl)-N-propylthiophene-2-carboxamide] | > 30000 | > 30000 | – | – | – | – | – | – | 628 | 630 | >5.0 | >5.0 | >5.0 | 65 | >5.0 | >5.0 | No adverse cytotoxicity
